Assay results as given in ChEMBL document CHEMBL4004838, “Design and synthesis of novel phenyl -1, 4-beta-carboline-hybrid molecules as potential anticancer agents” (Eur J Med Chem, 2017).

Columns and labels:
Type in all cases: functional
NCI-H322M = experiment: Growth inhibition of human NCI-H322M cells incubated for 48 hrs by sulforhodamine B assay
NCI-H460 [1] = experiment: Growth inhibition of human NCI-H460 cells incubated for 48 hrs by sulforhodamine B assay; conditions: NCI-H460, 48 h
KM12 [2] = experiment: Growth inhibition of human KM12 cells incubated for 48 hrs by sulforhodamine B assay; conditions: KM12, 48 h
NCI/ADR-RES = experiment: Growth inhibition of human NCI-ADR-RES cells incubated for 48 hrs by sulforhodamine B assay
786-0 = experiment: Growth inhibition of human 786-0 cells incubated for 48 hrs by sulforhodamine B assay; conditions: 786-0, 48 h
UO-31 = experiment: Growth inhibition of human UO31 cells incubated for 48 hrs by sulforhodamine B assay; conditions: UO-31, 48 h
MCF7 = experiment: Growth inhibition of human MCF7 cells incubated for 48 hrs by sulforhodamine B assay; conditions: MCF7, 48 h; for TGI: read-out: pTGI (converted)
SR = experiment: Growth inhibition of human SR cells assessed as cell growth at 0.01 uM incubated for 48 hrs by sulforhodamine B assay relative to control; conditions: read-out: Activity
SNB-75 = experiment: Growth inhibition of human SNB75 cells assessed as cell growth at 0.01 uM incubated for 48 hrs by sulforhodamine B assay relative to control; conditions: SNB-75, 48 h, read-out: Activity
U-251 [3] = experiment: Growth inhibition of human U251 cells assessed as cell growth at 0.01 uM incubated for 48 hrs by sulforhodamine B assay relative to control; conditions: U-251, 48 h, read-out: Activity
NCI-H226 = experiment: Growth inhibition of human NCI-H226 cells assessed as cell growth at 0.1 uM incubated for 48 hrs by sulforhodamine B assay relative to control; conditions: NCI-H226, 48 h, read-out: Activity
NCI-H460 [4] = experiment: Growth inhibition of human NCI-H460 cells assessed as cell growth at 0.1 uM incubated for 48 hrs by sulforhodamine B assay relative to control; conditions: NCI-H460, 48 h, read-out: Activity
KM12 [5] = experiment: Growth inhibition of human KM12 cells assessed as cell growth at 0.1 uM incubated for 48 hrs by sulforhodamine B assay relative to control; conditions: KM12, 48 h, read-out: Activity
LOX IMVI = experiment: Growth inhibition of human LOXIMVI cells assessed as cell growth at 0.1 uM incubated for 48 hrs by sulforhodamine B assay relative to control; conditions: read-out: Activity
ACHN = experiment: Growth inhibition of human ACHN cells assessed as cell growth at 0.1 uM incubated for 48 hrs by sulforhodamine B assay relative to control; conditions: read-out: Activity
DU-145 = experiment: Growth inhibition of human DU145 cells assessed as cell growth at 0.1 uM incubated for 48 hrs by sulforhodamine B assay relative to control; conditions: DU-145, 48 h, read-out: Activity
BT-549 = experiment: Growth inhibition of human BT549 cells assessed as cell growth at 0.1 uM incubated for 48 hrs by sulforhodamine B assay relative to control; conditions: BT-549, 48 h, read-out: Activity
MOLT-4 = experiment: Growth inhibition of human MOLT4 cells assessed as cell growth at 1 uM incubated for 48 hrs by sulforhodamine B assay relative to control; conditions: MOLT-4, 48 h, read-out: Activity
HCT-116 = experiment: Growth inhibition of human HCT116 cells assessed as cell growth at 1 uM incubated for 48 hrs by sulforhodamine B assay relative to control; conditions: HCT-116, 48 h, read-out: Activity
U-251 [6] = experiment: Growth inhibition of human U251 cells assessed as cell growth at 1 uM incubated for 48 hrs by sulforhodamine B assay relative to control; conditions: U-251, 48 h, read-out: Activity
IGROV-1 = experiment: Growth inhibition of human IGROV1 cells assessed as cell growth at 1 uM incubated for 48 hrs by sulforhodamine B assay relative to control; conditions: IGROV-1, 48 h, read-out: Activity
MDA-MB-231 = experiment: Growth inhibition of human MDA-MB-231 cells assessed as cell growth at 1 uM incubated for 48 hrs by sulforhodamine B assay relative to control; conditions: MDA-MB-231, 48 h, read-out: Activity
HOP-62 = experiment: Growth inhibition of human HOP62 cells assessed as cell growth at 100 uM incubated for 48 hrs by sulforhodamine B assay relative to control; conditions: HOP-62, 48 h, read-out: Activity
SK-MEL-2 = experiment: Growth inhibition of human SK-MEL-2 cells assessed as cell growth at 100 uM incubated for 48 hrs by sulforhodamine B assay relative to control; conditions: SK-MEL-2, 48 h, read-out: Activity
UACC-257 = experiment: Growth inhibition of human UACC257 cells assessed as cell growth at 100 uM incubated for 48 hrs by sulforhodamine B assay relative to control; conditions: UACC-257, 48 h, read-out: Activity
SK-OV-3 = experiment: Growth inhibition of human SKOV3 cells assessed as cell growth at 100 uM incubated for 48 hrs by sulforhodamine B assay relative to control; conditions: SK-OV-3, 48 h, read-out: Activity
A498 = experiment: Growth inhibition of human A498 cells assessed as cell growth at 100 uM incubated for 48 hrs by sulforhodamine B assay relative to control; conditions: A498, 48 h, read-out: Activity
RXF 393 = experiment: Growth inhibition of human RXF393 cells assessed as cell growth at 100 uM incubated for 48 hrs by sulforhodamine B assay relative to control; conditions: RXF 393, 48 h, read-out: Activity
MDA-MB-468 = experiment: Growth inhibition of human MDA-MB-468 cells assessed as cell growth at 100 uM incubated for 48 hrs by sulforhodamine B assay relative to control; conditions: MDA-MB-468, 48 h, read-out: Activity
[7] = read-out: LC50 (the source's name)
[8] = read-out: pLC50 (the source's name) (converted)

c1ccc2[nH]c(-c3ccc(-c4nccc5c4[nH]c4ccccc45)cc3)nc2c1
GI50 (NCI-H322M; read-out: GI50): 2.86 µM | CC50 (NCI-H322M; [7]): 4.41 µM | TGI (NCI-H322M; read-out: TGI): 8.9 µM | GI50 (NCI-H322M; read-out: pGI50 (converted)): 2.88 µM | CC50 (NCI-H322M; [8]): 43.7 µM | TGI (NCI-H322M; read-out: pTGI (converted)): 8.91 µM | GI50 (NCI-H460 [1]; read-out: GI50): 3.03 µM | CC50 (NCI-H460 [1]; [7]): > 1 µM | TGI (NCI-H460 [1]; read-out: TGI): 9.8 µM | GI50 (NCI-H460 [1]; read-out: pGI50 (converted)): 3.02 µM | CC50 (NCI-H460 [1]; [8]): > 100 µM | TGI (NCI-H460 [1]; read-out: pTGI (converted)): 9.77 µM | LC50 (KM12 [2]; read-out: LC50): 5.29 µM | GI50 (KM12 [2]; read-out: pGI50 (converted)): 3.63 µM | LC50 (KM12 [2]; read-out: pLC50 (converted)): 52.5 µM | TGI (KM12 [2]; read-out: pTGI (converted)): 15.8 µM | GI50 (NCI/ADR-RES; read-out: GI50): 3.5 µM | CC50 (NCI/ADR-RES; [7]): > 1 µM | GI50 (NCI/ADR-RES; read-out: pGI50 (converted)): 3.47 µM | CC50 (NCI/ADR-RES; read-out: pLC50 (converted)): > 100 µM | TGI (NCI/ADR-RES; read-out: pTGI (converted)): 15.1 µM | GI50 (786-0; read-out: GI50): 2.24 µM | CC50 (786-0; [7]): 3.83 µM | TGI (786-0; read-out: TGI): 6.3 µM | GI50 (786-0; read-out: pGI50 (converted)): 2.24 µM | CC50 (786-0; [8]): 38 µM | TGI (786-0; read-out: pTGI (converted)): 6.31 µM | GI50 (UO-31; read-out: GI50): 1.69 µM | CC50 (UO-31; [7]): 6.32 µM | TGI (UO-31; read-out: TGI): 3.27 µM | GI50 (UO-31; read-out: pGI50 (converted)): 1.7 µM | CC50 (UO-31; [8]): 6.31 µM | TGI (UO-31; read-out: pTGI (converted)): 3.24 µM | GI50 (MCF7; read-out: GI50): 3.56 µM | CC50 (MCF7; [7]): 8.86 µM | GI50 (MCF7; read-out: pGI50 (converted)): 3.55 µM | CC50 (MCF7; [8]): 89.1 µM | TGI (MCF7): 17.4 µM | growth at 0.01 µM (SR): 97% | growth at 0.01 µM (SNB-75): 81% | growth at 0.01 µM (U-251 [3]): 101% | growth at 0.1 µM (NCI-H226): 104% | growth at 0.1 µM (NCI-H460 [4]): 110% | growth at 0.1 µM (KM12 [5]): 96% | growth at 0.1 µM (LOX IMVI): 92% | growth at 0.1 µM (ACHN): 98% | growth at 0.1 µM (DU-145): 96% | growth at 0.1 µM (BT-549): 92% | growth at 1 µM (MOLT-4): 93% | growth at 1 µM (HCT-116): 90% | growth at 1 µM (U-251 [6]): 98% | growth at 1 µM (IGROV-1): 102% | growth at 1 µM (MDA-MB-231): 99% | growth at 100 µM (HOP-62): 70% | growth at 100 µM (SK-MEL-2): 64% | growth at 100 µM (UACC-257): 81% | growth at 100 µM (SK-OV-3): 86% | growth at 100 µM (A498): 85% | growth at 100 µM (RXF 393): 68% | growth at 100 µM (MDA-MB-468): 63%

c1ccc2c3c([nH]c2c1)C(c1ccc(C2NCCc4c2[nH]c2ccccc42)cc1)NCC3 (racemic)
GI50 (NCI-H322M; read-out: GI50): 1.25 µM | CC50 (NCI-H322M; [7]): 5.68 µM | TGI (NCI-H322M; read-out: TGI): 2.66 µM | GI50 (NCI-H322M; read-out: pGI50 (converted)): 1.26 µM | CC50 (NCI-H322M; [8]): 5.62 µM | TGI (NCI-H322M; read-out: pTGI (converted)): 2.69 µM | GI50 (NCI-H460 [1]; read-out: GI50): 2.21 µM | CC50 (NCI-H460 [1]; [7]): 9.12 µM | TGI (NCI-H460 [1]; read-out: TGI): 4.49 µM | GI50 (NCI-H460 [1]; read-out: pGI50 (converted)): 0.219 µM | CC50 (NCI-H460 [1]; [8]): 0.912 µM | TGI (NCI-H460 [1]; read-out: pTGI (converted)): 4.47 µM | GI50 (KM12 [2]; read-out: GI50): 1.07 µM | TGI (KM12 [2]; read-out: TGI): 2.36 µM | GI50 (KM12 [2]; read-out: pGI50 (converted)): 1.07 µM | TGI (KM12 [2]; read-out: pTGI (converted)): 2.34 µM | GI50 (NCI/ADR-RES; read-out: GI50): 2.1 µM | CC50 (NCI/ADR-RES; [7]): > 1 µM | TGI (NCI/ADR-RES; read-out: TGI): 7.81 µM | GI50 (NCI/ADR-RES; read-out: pGI50 (converted)): 2.09 µM | CC50 (NCI/ADR-RES; read-out: pLC50 (converted)): > 100 µM | TGI (NCI/ADR-RES; read-out: pTGI (converted)): 7.76 µM | GI50 (786-0; read-out: GI50): 1.74 µM | CC50 (786-0; [7]): 6.54 µM | TGI (786-0; read-out: TGI): 3.38 µM | GI50 (786-0; read-out: pGI50 (converted)): 1.74 µM | CC50 (786-0; [8]): 6.61 µM | TGI (786-0; read-out: pTGI (converted)): 3.39 µM | GI50 (UO-31; read-out: GI50): 1.04 µM | CC50 (UO-31; [7]): 4.92 µM | TGI (UO-31; read-out: TGI): 2.26 µM | GI50 (UO-31; read-out: pGI50 (converted)): 1.05 µM | CC50 (UO-31; [8]): 4.9 µM | TGI (UO-31; read-out: pTGI (converted)): 2.24 µM | CC50 (MCF7; [7]): 6.1 µM | GI50 (MCF7; read-out: pGI50 (converted)): 0.389 µM | CC50 (MCF7; [8]): 6.17 µM | TGI (MCF7): 1.74 µM | growth at 0.01 µM (SR): 108% | growth at 0.01 µM (SNB-75): 78% | growth at 0.01 µM (U-251 [3]): 98% | growth at 0.1 µM (NCI-H226): 95% | growth at 0.1 µM (NCI-H460 [4]): 106% | growth at 0.1 µM (KM12 [5]): 95% | growth at 0.1 µM (LOX IMVI): 91% | growth at 0.1 µM (ACHN): 97% | growth at 0.1 µM (DU-145): 100% | growth at 0.1 µM (BT-549): 95% | growth at 1 µM (MOLT-4): 13% | growth at 1 µM (HCT-116): 81% | growth at 1 µM (U-251 [6]): 4% | growth at 1 µM (IGROV-1): 70% | growth at 1 µM (MDA-MB-231): 3% | growth at 100 µM (HOP-62): 83% | growth at 100 µM (SK-MEL-2): 93% | growth at 100 µM (UACC-257): 94% | growth at 100 µM (SK-OV-3): -96% | growth at 100 µM (A498): -85% | growth at 100 µM (RXF 393): -81% | growth at 100 µM (MDA-MB-468): -78%
